The test system of the experiment is A549 lung carcinoma cells. Put plainly: Oxidative stress induction in A549 cells, GSH/GSSG measured by LC-MS/MS. The experiment is classed as cell-based, human. The note with it: 100 μmol/L H2O2 for 15 min. On the procedure: Cell culture: A549 human lung carcinoma cells were obtained from CLS Cell Lines Service, Eppelheim, Germany, and were cultured in RPMI medium supplemented with 10% fetal bovine serum and 2 mmol/L glutamine in a 5% CO2, 37° C. incubator. For H2O2 treatment, cells were seeded in 12-well plates (300000 cells/well) and after a day in culture treated with 500 μl of control (Ca2+, Mg2+-PBS) or 100 μmol/L H2O2 in Ca2+, Mg2+-PBS for 15 min followed by two PBS washing steps and the NEM (2.5 mmol/L) incubation step. The detailed stabilisation workflow is illustrated in FIG. 1 and example 2.
Method overview: The method was tested and fully optimized for three different sample types: cells, blood and tissue. In clinical measurements available sample amount is often a limiting factor. The high sensitivity of the presented method enables analysis of scarce samples as minimal sample amounts are required. Typically, 5 μL of blood, 3-5 mg of tissue sample or 300.000 cells were used as starting material. […] All three analytes GSH-NEM, GSH-d5-NEM and ^13C, ^15N-GSH-d5-NEM (IS) were then simultaneously measured by LC-MS/MS using an MRM-based approach (FIG. 1, step 4), see also example 4.
Chromatography was carried out on a Dionex UltiMate 3000 system equipped with a Zorbax SB-C18 column (50 mm×4.6 mm, 1.8 μm, Agilent, USA). […] The sum of areas under both peaks was used for integration and quantification. […]

In the case of `OO` [H2O2], the GSH/GSSG ratio result (GSSG measured as GSH-d5-NEM) is on record as “drastically reduced”. Also, the “intracellular GSH values” (vs control PBS) is listed as “depleted”.

(Values after patent US12216125B2, “Method and kit for isotope-labelling of a glutathione-containing biological sample for mass spectrometry” (TECHNISCHE UNIVERSITÄT WIEN, priority 2018, dated 2025).)
